Measured values published in patent US4068070A, “α-Cyanoamine compounds and a process for producing the same” (Fuji Chemical Industry Co., Ltd., priority 1974, dated 1978).

What was measured:
Format in all cases: in vivo, mongrel adult dogs
[1] = test system: arterial mean blood pressure; test: Effects on arterial mean blood pressure
In short: (§1)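 Readouts: aortic pressure by transducer through carotid cannula, aortic root flow electromagnetically, coronary sinus flow and oxygen tension through Morawitz cannulation. Subjects were anesthetized (pentobarbital) open-chest adult mongrel dogs of either sex given intravenous test compound or active placebo.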

[2] = test system: coronary sinus oxygen tension; test: Effects on coronary sinus oxygen tension
In short: as §1

coronary sinus out flow = test: Effects on coronary sinus out flow
In short: as §1

heart rate = test: Effects on heart rate
In short: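 Adult mongrel dogs of both sexes were anesthetized with pentobarbital and thoracotomized. Test agents, suspended or dissolved in 0.2% CMC, pH 6 HCl solution or saline, were injected intravenously into the brachial vein. Hemodynamic and coronary sinus parameters were then recorded.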

aortic blood flow = test: Effects on aortic blood flow
In short: as §1

COc1ccc(C(C#N)N2CCN(CC=Cc3ccccc3)CC2)cc1OC (centres unmarked) [Compound D]
Changes (%) of basal values, arterial mean blood pressure ([1]; 2.0 mg/kg i.v., 1 min): +1.6% | Changes (%) of basal values, arterial mean blood pressure ([1]; 2.0 mg/kg i.v., 5 min): -3.0% | Changes (%) of basal values, arterial mean blood pressure ([1]; 2.0 mg/kg i.v., 10 min): -1.5% | Changes (%) of basal values, arterial mean blood pressure ([1]; 2.0 mg/kg i.v., 20 min): -0.5% | Changes (%) of basal values, arterial mean blood pressure ([1]; 2.0 mg/kg i.v., 30 min): 0% | Changes (%) of basal values, arterial mean blood pressure ([1]; 2.0 mg/kg i.v., 40 min): 0% | Changes (%) of basal values, arterial mean blood pressure ([1]; 2.0 mg/kg i.v., imm.): -13.6% | Changes (%) of basal values, arterial mean blood pressure ([1]; 6.0 mg/kg i.v., 1 min): -9.7% | Changes (%) of basal values, arterial mean blood pressure ([1]; 6.0 mg/kg i.v., 5 min): -10.3% | Changes (%) of basal values, arterial mean blood pressure ([1]; 6.0 mg/kg i.v., 10 min): -10.0% | Changes (%) of basal values, arterial mean blood pressure ([1]; 6.0 mg/kg i.v., 20 min): -6.0% | Changes (%) of basal values, arterial mean blood pressure ([1]; 6.0 mg/kg i.v., 30 min): -3.0% | Changes (%) of basal values, arterial mean blood pressure ([1]; 6.0 mg/kg i.v., 40 min): -1.0% | Changes (%) of basal values, arterial mean blood pressure ([1]; 6.0 mg/kg i.v., imm.): -36.1% | Changes (%) of basal values, arterial mean blood pressure ([1]; 20.0 mg/kg i.v., 1 min): -19.7% | Changes (%) of basal values, arterial mean blood pressure ([1]; 20.0 mg/kg i.v., 5 min): -14.4% | Changes (%) of basal values, arterial mean blood pressure ([1]; 20.0 mg/kg i.v., 10 min): -13.5% | Changes (%) of basal values, arterial mean blood pressure ([1]; 20.0 mg/kg i.v., 20 min): -8.3% | Changes (%) of basal values, arterial mean blood pressure ([1]; 20.0 mg/kg i.v., 30 min): -5.1% | Changes (%) of basal values, arterial mean blood pressure ([1]; 20.0 mg/kg i.v., 40 min): -3.1% | Changes (%) of basal values, arterial mean blood pressure ([1]; 20.0 mg/kg i.v., imm.): -45.0% | Effects on arterial mean blood pressure (in words) ([1]; i.v., anesthetized dogs): hypotensive effects being proportioned to their doses which were of long duration | Changes(%) of basal values, coronary sinus oxygen tension ([2]; 2.0 mg/kg i.v., 1 min): +2.7% | Changes(%) of basal values, coronary sinus oxygen tension ([2]; 2.0 mg/kg i.v., 5 min): +0.5% | Changes(%) of basal values, coronary sinus oxygen tension ([2]; 2.0 mg/kg i.v., 10 min): -1.0% | Changes(%) of basal values, coronary sinus oxygen tension ([2]; 2.0 mg/kg i.v., 20 min): -0.5% | Changes(%) of basal values, coronary sinus oxygen tension ([2]; 2.0 mg/kg i.v., 30 min): 0% | Changes(%) of basal values, coronary sinus oxygen tension ([2]; 2.0 mg/kg i.v., 40 min): 0% | Changes(%) of basal values, coronary sinus oxygen tension ([2]; 2.0 mg/kg i.v., imm.): +6.7% | Changes(%) of basal values, coronary sinus oxygen tension ([2]; 6.0 mg/kg i.v., 1 min): +14.0% | Changes(%) of basal values, coronary sinus oxygen tension ([2]; 6.0 mg/kg i.v., 5 min): +5.8% | Changes(%) of basal values, coronary sinus oxygen tension ([2]; 6.0 mg/kg i.v., 10 min): +1.0% | Changes(%) of basal values, coronary sinus oxygen tension ([2]; 6.0 mg/kg i.v., 20 min): -1.0% | Changes(%) of basal values, coronary sinus oxygen tension ([2]; 6.0 mg/kg i.v., 30 min): 0% | Changes(%) of basal values, coronary sinus oxygen tension ([2]; 6.0 mg/kg i.v., 40 min): 0% | Changes(%) of basal values, coronary sinus oxygen tension ([2]; 6.0 mg/kg i.v., imm.): +23.8% | Changes(%) of basal values, coronary sinus oxygen tension ([2]; 20.0 mg/kg i.v., 1 min): +43.8% | Changes(%) of basal values, coronary sinus oxygen tension ([2]; 20.0 mg/kg i.v., 5 min): -21.2% | Changes(%) of basal values, coronary sinus oxygen tension ([2]; 20.0 mg/kg i.v., 10 min): +8.4% | Changes(%) of basal values, coronary sinus oxygen tension ([2]; 20.0 mg/kg i.v., 20 min): +3.2% | Changes(%) of basal values, coronary sinus oxygen tension ([2]; 20.0 mg/kg i.v., 30 min): +2.0% | Changes(%) of basal values, coronary sinus oxygen tension ([2]; 20.0 mg/kg i.v., 40 min): +0.2% | Changes(%) of basal values, coronary sinus oxygen tension ([2]; 20.0 mg/kg i.v., imm.): +60.3% | Effects on coronary sinus oxygen tension (in words) ([2]; i.v., anesthetized dogs): a significant increase in coronary sinus oxygen tension, effect of which was of long duration | Changes(%) of basal values, coronary sinus out flow (coronary sinus out flow; 2.0 mg/kg i.v., 1 min): +1.6% | Changes(%) of basal values, coronary sinus out flow (coronary sinus out flow; 2.0 mg/kg i.v., 5 min): -3.1% | Changes(%) of basal values, coronary sinus out flow (coronary sinus out flow; 2.0 mg/kg i.v., 10 min): -1.0% | Changes(%) of basal values, coronary sinus out flow (coronary sinus out flow; 2.0 mg/kg i.v., 20 min): 0% | Changes(%) of basal values, coronary sinus out flow (coronary sinus out flow; 2.0 mg/kg i.v., 30 min): 0% | Changes(%) of basal values, coronary sinus out flow (coronary sinus out flow; 2.0 mg/kg i.v., 40 min): 0% | Changes(%) of basal values, coronary sinus out flow (coronary sinus out flow; 2.0 mg/kg i.v., imm.): +6.2% | Changes(%) of basal values, coronary sinus out flow (coronary sinus out flow; 6.0 mg/kg i.v., 1 min): +9.1% | Changes(%) of basal values, coronary sinus out flow (coronary sinus out flow; 6.0 mg/kg i.v., 5 min): -0.2% | Changes(%) of basal values, coronary sinus out flow (coronary sinus out flow; 6.0 mg/kg i.v., 10 min): -0.4% | Changes(%) of basal values, coronary sinus out flow (coronary sinus out flow; 6.0 mg/kg i.v., 20 min): -0.2% | Changes(%) of basal values, coronary sinus out flow (coronary sinus out flow; 6.0 mg/kg i.v., 30 min): 0% | Changes(%) of basal values, coronary sinus out flow (coronary sinus out flow; 6.0 mg/kg i.v., 40 min): 0% | Changes(%) of basal values, coronary sinus out flow (coronary sinus out flow; 6.0 mg/kg i.v., imm.): +23.0% | Changes(%) of basal values, coronary sinus out flow (coronary sinus out flow; 20.0 mg/kg i.v., 1 min): +49.3% | Changes(%) of basal values, coronary sinus out flow (coronary sinus out flow; 20.0 mg/kg i.v., 5 min): +9.1% | Changes(%) of basal values, coronary sinus out flow (coronary sinus out flow; 20.0 mg/kg i.v., 10 min): +8.4% | Changes(%) of basal values, coronary sinus out flow (coronary sinus out flow; 20.0 mg/kg i.v., 20 min): +8.0% | Changes(%) of basal values, coronary sinus out flow (coronary sinus out flow; 20.0 mg/kg i.v., 30 min): +5.7% | Changes(%) of basal values, coronary sinus out flow (coronary sinus out flow; 20.0 mg/kg i.v., 40 min): +3.0% | Changes(%) of basal values, coronary sinus out flow (coronary sinus out flow; 20.0 mg/kg i.v., imm.): +66.2% | Effects on coronary sinus out flow (in words) (coronary sinus out flow; i.v., anesthetized dogs): a marked increasing effect on coronary sinus out flow, which was proportioned to doses thereof and of long duration | Changes(%) of basal values, heart rate (heart rate; 2.0 mg/kg i.v., 1 min): +1.0% | Changes(%) of basal values, heart rate (heart rate; 2.0 mg/kg i.v., 5 min): 0% | Changes(%) of basal values, heart rate (heart rate; 2.0 mg/kg i.v., 10 min): 0% | Changes(%) of basal values, heart rate (heart rate; 2.0 mg/kg i.v., 20 min): 0% | Changes(%) of basal values, heart rate (heart rate; 2.0 mg/kg i.v., 30 min): 0% | Changes(%) of basal values, heart rate (heart rate; 2.0 mg/kg i.v., 40 min): 0% | Changes(%) of basal values, heart rate (heart rate; 2.0 mg/kg i.v., imm.): -0.6% | Changes(%) of basal values, heart rate (heart rate; 6.0 mg/kg i.v., 1 min): +1.5% | Changes(%) of basal values, heart rate (heart rate; 6.0 mg/kg i.v., 5 min): -0.9% | Changes(%) of basal values, heart rate (heart rate; 6.0 mg/kg i.v., 10 min): -1.6% | Changes(%) of basal values, heart rate (heart rate; 6.0 mg/kg i.v., 20 min): -1.0% | Changes(%) of basal values, heart rate (heart rate; 6.0 mg/kg i.v., 30 min): -0.5% | Changes(%) of basal values, heart rate (heart rate; 6.0 mg/kg i.v., 40 min): 0% | Changes(%) of basal values, heart rate (heart rate; 6.0 mg/kg i.v., imm.): -1.5% | Changes(%) of basal values, heart rate (heart rate; 20.0 mg/kg i.v., 1 min): -3.1% | Changes(%) of basal values, heart rate (heart rate; 20.0 mg/kg i.v., 5 min): -3.5% | Changes(%) of basal values, heart rate (heart rate; 20.0 mg/kg i.v., 10 min): -3.9% | Changes(%) of basal values, heart rate (heart rate; 20.0 mg/kg i.v., 20 min): -2.8% | Changes(%) of basal values, heart rate (heart rate; 20.0 mg/kg i.v., 30 min): -1.3% | Changes(%) of basal values, heart rate (heart rate; 20.0 mg/kg i.v., 40 min): -0.5% | Changes(%) of basal values, heart rate (heart rate; 20.0 mg/kg i.v., imm.): -14.5% | Effects on heart rate (in words) (heart rate; i.v., anesthetized dogs): a slight negative chronotropic effect | Changes (%) of basal values, aortic blood flow (aortic blood flow; 2.0 mg/kg i.v., 1 min): +3.3% | Changes (%) of basal values, aortic blood flow (aortic blood flow; 2.0 mg/kg i.v., 5 min): -0.8% | Changes (%) of basal values, aortic blood flow (aortic blood flow; 2.0 mg/kg i.v., 10 min): 0% | Changes (%) of basal values, aortic blood flow (aortic blood flow; 2.0 mg/kg i.v., 20 min): 0% | Changes (%) of basal values, aortic blood flow (aortic blood flow; 2.0 mg/kg i.v., 30 min): 0% | Changes (%) of basal values, aortic blood flow (aortic blood flow; 2.0 mg/kg i.v., 40 min): 0% | Changes (%) of basal values, aortic blood flow (aortic blood flow; 2.0 mg/kg i.v., imm.): +8.3% | Changes (%) of basal values, aortic blood flow (aortic blood flow; 6.0 mg/kg i.v., 1 min): +3.3% | Changes (%) of basal values, aortic blood flow (aortic blood flow; 6.0 mg/kg i.v., 5 min): -2.7% | Changes (%) of basal values, aortic blood flow (aortic blood flow; 6.0 mg/kg i.v., 10 min): +0.7% | Changes (%) of basal values, aortic blood flow (aortic blood flow; 6.0 mg/kg i.v., 20 min): +0.5% | Changes (%) of basal values, aortic blood flow (aortic blood flow; 6.0 mg/kg i.v., 30 min): 0% | Changes (%) of basal values, aortic blood flow (aortic blood flow; 6.0 mg/kg i.v., 40 min): 0% | Changes (%) of basal values, aortic blood flow (aortic blood flow; 6.0 mg/kg i.v., imm.): +12.0% | Changes (%) of basal values, aortic blood flow (aortic blood flow; 20.0 mg/kg i.v., 1 min): +16.3% | Changes (%) of basal values, aortic blood flow (aortic blood flow; 20.0 mg/kg i.v., 5 min): -3.8% | Changes (%) of basal values, aortic blood flow (aortic blood flow; 20.0 mg/kg i.v., 10 min): -4.0% | Changes (%) of basal values, aortic blood flow (aortic blood flow; 20.0 mg/kg i.v., 20 min): -3.4% | Changes (%) of basal values, aortic blood flow (aortic blood flow; 20.0 mg/kg i.v., 30 min): -1.8% | Changes (%) of basal values, aortic blood flow (aortic blood flow; 20.0 mg/kg i.v., 40 min): -0.3% | Changes (%) of basal values, aortic blood flow (aortic blood flow; 20.0 mg/kg i.v., imm.): +27.4% | Effects on aortic blood flow (in words) (aortic blood flow; i.v., anesthetized dogs): an increase in blood flow immediately after administration, followed by a decrease in blood flow
